Assay results as given in US20120040987A1, “DERIVATIVES OF 6-(6-NH-SUBSTITUTED-TRIAZOLOPYRIDAZINE-SULFANYL) BENZOTHIAZOLES AND BENZIMIDAZOLES, PREPARATION THEREOF, USE THEREOF AS DRUGS, AND USE THEREOF AS MET INHIBITORS” (SANOFI, priority 2009, published 2012).

How the values were obtained:
[1] = system: HCT116 cells and MKN45 cells; assay: Test C: measurement of cell proliferation by 14C-thymidine pulse; assay type: cell-based; conditions: 14C-thymidine incorporation, 96 h of treatment; cell line not given
Procedure: The cells are seeded into Cytostar 96-well plates in 180 μl for 4 hours at 37° C. and 5% CO2: HCT116 cells at a rate of 2500 cells per well in DMEM medium+10% foetal calf serum+1% L-glutamine and MKN45 cells at a rate of 7500 cells per well in RPMI medium+10% foetal calf serum+1% L-glutamine. After these 4 hours of incubation, the products are added in 10 μl as a 20-fold concentrated solution according to the dilution method mentioned for the ELISA. The products are tested at 10 concentrations in duplicate from 10 000 nM to 0.3 nM with an increment of 3.
After treatment for 72 h, add 10 μl of ^14C-thymidine at 10 μCi/ml to obtain 0.1 μCi per well. The ^14C-thymidine incorporation is measured on a Micro-Beta machine (Perkin-Elmer) after 24 hours of pulse and 96 h of treatment.
All the steps of the assay are automated on BIOMEK 2000 or TECAN stations.

MET [2] = target: T1, MET (Homo sapiens, UniProt P08581); assay: Test B: inhibition of the autophosphorylation of MET, ELISA technique (pppY1230, 1234, 1235) on MKN45 cell lysates; assay type: cell-based; parameters: endogenous in cells; host or cells: MKN45 cells; conditions: MKN45 cells, 1 h treatment, phosphoMET ELISA
Procedure: a) Cell lysates: Seed MKN45 cells into 96-well plates (Cell coat BD polylysine) at 20 000 cells/well in 200 μl in RPMI medium+10% FCS+1% L-glutamine. Leave to adhere for 24 hours in an incubator.
The cells are treated the day after seeding with the products at 6 concentrations in duplicate for 1 h. At least 3 control wells are treated with the same final amount of DMSO.
Product dilution: Stock at 10 mM in pure DMSO—range from 10 mM to 30 μM with an increment of 3 in pure DMSO—intermediate 1/50 dilutions in culture medium and then removal of 10 μl added directly to the cells (200 μl): final range of 10 000 to 30 nM.
At the end of the incubation, carefully remove the supernatant and rinse with 200 μl of PBS. Next, place 100 μl of lysis buffer directly in the wells on ice and incubate at 4° C. for 30 minutes. Lysis buffer: 10 mM Tris HCl, pH7.4, 100 mM NaCl, 1 mM EDTA, 1 mM EGTA, 1% Triton X-100, 10% glycerol, 0.1% SDS, 0.5% deoxycholate, 20 mM NaF, 2 mM Na3VO4, 1 mM PMSF and cocktail of antiproteases.
The 100 μl of lysates are transferred into a V-bottomed polypropylene plate and the ELISA is performed immediately, or the plate is frozen at −80° C.
Into each well of the kit plate, add 70 μl of kit dilution buffer+30 μL of cell lysate or 30 μl of lysis buffer for the blanks. Incubate for 2 h with gentle agitation at ambient temperature.
Rinse the wells 4 times with 400 μl of kit washing buffer. Incubate with 100 μl of anti-phospho MET antibody for 1 hour at ambient temperature.
Rinse the wells 4 times with 400 μl of kit washing buffer. Incubate with 100 μl of anti-rabbit HRP antibody for 30 minutes at ambient temperature (except for the wells of chromogen alone).
Rinse the wells 4 times with 400 μl of kit washing buffer. Introduce 100 μL of chromogen and incubate for 30 minutes in the dark at ambient temperature.
Stop the reaction with 100 μl of stop solution. Read without delay at […], 0.1 second on Wallac Victor plate reader.
Target sequence in this assay (P08581 25-1390): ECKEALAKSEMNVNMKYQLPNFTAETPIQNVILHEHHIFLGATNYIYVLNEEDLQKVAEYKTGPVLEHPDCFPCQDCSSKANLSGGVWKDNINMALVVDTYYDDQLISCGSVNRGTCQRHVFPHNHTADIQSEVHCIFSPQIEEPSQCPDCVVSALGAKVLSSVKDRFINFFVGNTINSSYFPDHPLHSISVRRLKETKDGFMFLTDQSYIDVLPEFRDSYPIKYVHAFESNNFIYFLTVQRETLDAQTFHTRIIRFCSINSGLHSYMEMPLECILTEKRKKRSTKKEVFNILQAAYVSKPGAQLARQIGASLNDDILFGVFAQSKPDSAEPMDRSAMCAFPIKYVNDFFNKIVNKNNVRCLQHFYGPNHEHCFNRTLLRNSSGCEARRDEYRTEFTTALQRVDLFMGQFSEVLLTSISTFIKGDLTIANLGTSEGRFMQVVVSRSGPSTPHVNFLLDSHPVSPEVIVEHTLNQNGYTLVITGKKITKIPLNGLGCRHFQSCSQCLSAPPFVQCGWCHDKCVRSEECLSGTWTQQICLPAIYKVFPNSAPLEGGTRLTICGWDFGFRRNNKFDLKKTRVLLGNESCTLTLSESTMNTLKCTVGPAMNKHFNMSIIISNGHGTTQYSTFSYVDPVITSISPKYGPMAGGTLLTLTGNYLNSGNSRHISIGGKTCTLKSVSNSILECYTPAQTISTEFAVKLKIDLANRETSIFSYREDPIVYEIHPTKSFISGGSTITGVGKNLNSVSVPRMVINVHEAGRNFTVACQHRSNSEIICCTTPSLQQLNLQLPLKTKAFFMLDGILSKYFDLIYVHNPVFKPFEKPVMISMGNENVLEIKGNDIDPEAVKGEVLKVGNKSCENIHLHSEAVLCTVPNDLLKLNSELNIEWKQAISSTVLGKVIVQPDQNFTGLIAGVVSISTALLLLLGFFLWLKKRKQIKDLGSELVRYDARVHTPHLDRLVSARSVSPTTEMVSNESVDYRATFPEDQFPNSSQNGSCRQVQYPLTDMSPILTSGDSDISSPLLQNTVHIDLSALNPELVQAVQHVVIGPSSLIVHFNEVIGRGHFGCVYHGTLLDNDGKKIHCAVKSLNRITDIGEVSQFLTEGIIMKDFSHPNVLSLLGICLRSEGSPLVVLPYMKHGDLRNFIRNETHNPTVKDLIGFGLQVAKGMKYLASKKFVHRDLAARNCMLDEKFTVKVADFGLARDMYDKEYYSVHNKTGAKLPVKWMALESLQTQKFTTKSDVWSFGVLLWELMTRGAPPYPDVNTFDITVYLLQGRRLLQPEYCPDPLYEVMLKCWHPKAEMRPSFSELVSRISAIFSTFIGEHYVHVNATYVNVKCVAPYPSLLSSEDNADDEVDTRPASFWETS

MET [3] = target: T1, MET; assay: Test A: HTRF MET assay in 96-well format; assay type: biochemical; parameters: The His-Tev-MET (956-1390) recombinant DNA in pFastBac (Invitrogen) is transfected into insect cells; His tag (N, cleaved yes); Tev cleavage site (N, cleaved yes); made in house; host or cells: SF21 insect cells (baculovirus, pFastBac); conditions: MET 5 nM, 10 μM ATP
Procedure: The His-Tev-MET (956-1390) recombinant DNA in pFastBac (Invitrogen) is transfected into insect cells, and after several viral amplification steps, the final baculovirus stock is tested for the expression of the protein of interest.
After infection for 72 h at 27° C. with the recombinant virus, the SF21 cell cultures are harvested by centrifugation and the cell pellets are stored at −80° C.
The cell pellets are resuspended in lysis buffer (buffer A [50 mM HEPES, pH 7.5, 250 mM NaCl, 10% glycerol, 1 mM TECP]; +cocktail of protease inhibitors, Roche Diagnostics, without EDTA, ref 1873580), stirred at 4° C. until the mixture is homogeneous and then lyzed mechanically using a “Dounce” type apparatus.
After centrifugation, the lysis supernatant is incubated for 2 h at 4° C. with nickel chelate resin (His-Trap 6 Fast Flow™, GE HealthCare). After washing with 20 volumes of buffer A, the suspension is packed into a column, and the proteins are eluted with a gradient of buffer B ([…]+290 mM imidazole).
The fractions containing the protein of interest for the purpose of electrophoretic analysis (SDS PAGE) are combined, concentrated by ultrafiltration (10 kDa cut-off) and injected onto an exclusion chromatography column (Superdex™ 200, GE HealthCare) equilibrated in buffer A.
After enzymatic cleavage of the histidine tag, the protein is reinjected onto a new IMAC nickel chelate chromatography column (His-Trap 6 Fast Flow™, GE HealthCare) equilibrated in buffer A. The fractions eluted with a gradient of buffer B and containing the protein of interest after electrophoresis (SDS PAGE) are finally combined and conserved at −80° C.
For the production of autophosphorylated protein, the previous fractions are incubated for 1 h at ambient temperature after the addition of 2 mM ATP, 2 mM MgCl2, and 4 mM Na3VO4. After the reaction has been stopped with 5 mM of EDTA, the reaction mixture is injected onto a HiPrep desalifying column (GE HealthCare) preequilibrated in buffer A+4 mM Na3VO4, and the fractions containing the protein of interest (SDS PAGE analysis) are combined and stored at −80° C. The degree of phosphorylation is verified by mass spectrometry (LC-MS) and by peptide mapping.
MET at a final concentration of 5 nM is incubated in a final volume of 50 μl of enzymatic reaction in the presence of the test molecule (for a final concentration range of from 0.17 nM to 10 μM, 3% DMSO final concentration) in 10 mM MOPS buffer, pH 7.4, 1 mM DTT, 0.01% Tween 20. The reaction is initiated with the substrate solution to obtain final concentrations of 1 μg/ml poly-(GAT), 10 μM ATP and 5 mM MgCl2. After incubation for 10 min at ambient temperature, the reaction is stopped with a 30 μl mix so as to obtain a final solution of 50 mM Hepes pH 7.5, 500 mM potassium fluoride, 0.1% BSA and 133 mM EDTA in the presence of 80 ng of streptavidin 61SAXLB Cis-Bio Int. and 18 ng of anti-phosphotyrosine Mab PT66-Europium Cryptate per well. After incubation for 2 hours at ambient temperature, the reading is taken at 2 wavelengths, 620 nm and 665 nm, on a reader for the TRACE/HTRF technique and the % inhibition is calculated from the 665/620 ratios.
Target sequence in this assay (P08581 956-1390): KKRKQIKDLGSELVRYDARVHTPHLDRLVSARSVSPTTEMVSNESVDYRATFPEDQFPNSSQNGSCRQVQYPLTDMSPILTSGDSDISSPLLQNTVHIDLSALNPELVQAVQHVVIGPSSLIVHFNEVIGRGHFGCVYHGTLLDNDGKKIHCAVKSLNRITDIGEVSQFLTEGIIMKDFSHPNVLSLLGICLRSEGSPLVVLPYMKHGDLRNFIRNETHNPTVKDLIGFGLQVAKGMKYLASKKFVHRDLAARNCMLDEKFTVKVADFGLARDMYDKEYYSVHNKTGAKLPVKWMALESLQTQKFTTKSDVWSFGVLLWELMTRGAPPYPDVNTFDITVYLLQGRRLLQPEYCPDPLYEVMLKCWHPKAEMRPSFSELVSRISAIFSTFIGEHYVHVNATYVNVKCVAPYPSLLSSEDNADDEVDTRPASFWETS

Row | SMILES | IC50 [1] | IC50 (MET [2]) | IC50 (MET [3])
1 | CN(C)CC(=O)Nc1nc2ccc(Sc3nnc4ccc(NC5CCOCC5)nn34)cc2s1 [Example 6, N^2,N^2-dimethyl-N-(6-{[6-(tetrahydro-2H-pyran-4-ylamino)[1,2,4]triazolo-[4,3-b]pyridazin-3-yl]sulphanyl}-1,3-benzothiazol-2-yl)glycinamide] | < 1000 nM | < 100 nM | < 100 nM
2 | COCCC(=O)Nc1nc2ccc(Sc3nnc4ccc(NC5CCOCC5)nn34)cc2s1 [Example 5, 3-Methoxy-N-(6-{[6-(tetrahydro-2H-pyran-4-ylamino)[1,2,4]triazolo-[4,3-b]pyridazin-3-yl]sulphanyl}-1,3-benzothiazol-2-yl)propanamide] | < 1000 nM | < 100 nM | < 100 nM
3 | Nc1nc2ccc(Sc3nnc4ccc(NC5CCOCC5)nn34)cc2s1 [Example 1, 3-[(2-Amino-1,3-benzothiazol-6-yl)sulphanyl]-N-(tetrahydro-2H-pyran-4-yl)[1,2,4]triazolo[4,3-b]pyridazin-6-amine] | < 1000 nM |  | < 100 nM
4 | O=C(NCCN1CCOCC1)Nc1nc2ccc(Sc3nnc4ccc(NC5CCOCC5)nn34)cc2s1 [Example 4, 1-[2-(Morpholin-4-yl)ethyl]-3-(6-{[6-(tetrahydro-2H-pyran-4-ylamino)-[1,2,4]triazolo[4,3-b]pyridazin-3-yl]sulphanyl}-1,3-benzothiazol-2-yl)urea] | < 1000 nM | < 100 nM | < 100 nM

Other lines, results leading:

Row | IC50 [1] | IC50 (MET [2]) | IC50 (MET [3]) | SMILES
5 | < 1000 nM | < 100 nM | < 100 nM | CC(=O)Nc1nc2ccc(Sc3nnc4ccc(NC5CCOCC5)nn34)cc2s1 [Example 2, N-(6-{[6-(Tetrahydro-2H-pyran-4-ylamino)[1,2,4]triazolo[4,3-b]pyridazin-3-yl]sulphanyl}-1,3-benzothiazol-2-yl)acetamide]
6 | < 1000 nM | < 100 nM | < 100 nM | O=C(Nc1nc2ccc(Sc3nnc4ccc(NC5CCOCC5)nn34)cc2s1)C1CC1 [Example 3, N-(6-{[6-(Tetrahydro-2H-pyran-4-ylamino)[1,2,4]triazolo[4,3-b]pyridazin-3-yl]sulphanyl}-1,3-benzothiazol-2-yl)cyclopropanecarboxamide]
